# Experimental data from patent US8252768B2, “Designer therapy of pancreatic tumors” (University of Miami, priority 2006, dated 2012).
# Read-outs that look alike come from different tables or passages of the source. Marks after values point to notes of the source that are not given here.
# How the values were obtained:
# uridine/cytidine kinase = assay: Competition assay for substrates of uridine/cytidine kinase, crude extracts of T24 cells; format: biochemical, human
# Description: 2 mM dithiothreitol (DTT) and 0.5 mM phenylmethylsulfanyl fluoride were added just before extraction. The tissue sample was homogenized in a Dounce glass homogenizer and then sonicated for 3 five-second pulses in a Branson Sonifier with a micro-tip at 25 KHz to disrupt the cells. During homogenization and sonication the extract was kept cold throughout the procedures. The tissue extract was then centrifuged at 14,000×g at 4° C. for 15 min., and the supernatant (the crude enzyme extract) was removed. The supernatant was sheared 20 times on ice utilizing a 1 cc syringe with a 27 G½ needle to reduce viscosity. […] 2 mM DTT and 340 μM H4U were added just before the assay. Finally, to the reaction mixture, 5 μl 200 mM creatine phosphate and creatine phosphokinase (0.5 unit/μl) was added to 150 μl of the section mixture. […] H2O bath for 1 minute before 20 μl of the crude enzyme extract was added to initiate the reaction. […] At 0, 30 and 60 minutes the reaction mixture, divided in separate tubes, was heated in a boiling water bath for 2 minutes to terminate the reaction. Denatured protein was then removed by centrifugation of the sample for 2 minutes at 14,000×g. The amount of nucleotide formed was determined by spotting 20 μl aliquots of the reaction mixture onto DE-81 2.2 cm Whatman filter discs. After air drying, the unphosphorylated substrate nucleoside was removed by washing twice for 10 min. in 20 mM ammonium formate and twice for 5 min. in deionized H2O with gentle stirring. A control, lacking the crude enzyme extract was included with each determination. The washed papers were dried under a heat lamp and then placed into individual scintillation vials, eluted for 30 min. in 1 ml of 0.1M HCl-0.1M KCL and then vortexed in 5 ml of scintillation fluid and counted. Enzyme activity was expressed as pmoles/min/mg protein.
# When uridine was utilized as substrate, benzacyclouridine was added to prevent the catabolism of the substrate by uridine phosphorylase and tetrahydrouridine was omitted.
# PC-3 cells [1] = assay: Radiosensitization of cells in culture (Cobalt 60, clonogenic survival); format: cell-based, human
# Description: (§1) Toxicity and Radiation Studies: The methods using clonogenic assays described by Perez and Greer (Int. J. Rad. Oncology: Biology, Physics 12, 1523-1527, 1986—incorporated herein by reference in its entirety) were followed.
# (§2) Irradiation of Cells in Culture: 2×10^5 cells were plated in 25 cm^2 flasks and grown for 18 hr at 37° C. in a humidified 5% CO2 atmosphere. The medium was then removed and replaced with medium containing the appropriate drug concentrations and incubated for 72 hrs then removed and the cell monolayers were rinsed twice with PBS. The flasks were then filled with 50 ml of radiation medium (3 parts RPMI 1640 and 7 parts PBS plus antibiotics and glutamine). The cells were then irradiated using a Cobalt 60 irradiator. The cell monolayers were placed 35 cm away from the source and irradiated for appropriate times according to the dose rate. The dose rate was calculated, at this distance, using ionization chambers. Attenuation factors due to the polystyrene flask (0.9923) and the medium (H2O=0.8715) were considered in calculating the exposure period.
# (§3) After irradiation the cell monolayers were washed again, replenished with growth media, and incubated for 1½ hours. The cell monolayers were then trypsinized and the cells serially diluted, appropriate dilutions were then plated in 60 mm dishes and incubated for 7-9 days at 37° C. and CO2. At the end of this period the cells were stained with crystal violet and the colony forming ability determined by considering 25 or more normal cells as a viable colony. The viabilities were determined and the appropriate survival curves derived. All conditions were done in duplicate using two flasks treated under identical conditions.
# T24 cells = assay: as above; format: cell-based, human
# Description: as §1, §2, §3
# cytidine deaminase (CD) = molecular target: T1, cytidine deaminase (CD) (Homo sapiens, UniProt P32320); assay: Competition assay for substrates of cytidine deaminase, crude extracts of PC-3 cells; format: biochemical
# T1 construct: Crude extracts of PC-3 cells in culture were prepared as described above; endogenous in cells; host or cells: PC-3 cells (crude extract supernatant)
# T1 sequence (P32320 whole entry): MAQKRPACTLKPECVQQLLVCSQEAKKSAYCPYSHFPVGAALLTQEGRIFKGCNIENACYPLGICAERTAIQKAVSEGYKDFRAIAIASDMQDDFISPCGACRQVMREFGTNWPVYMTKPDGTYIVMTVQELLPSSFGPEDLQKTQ
# Description: (§4) The crude enzyme extract (the supernatant of a 10 minute 14,000×g centrifugation) was then added. When cytidine was used as substrate, assays were conducted with benzacyclouridine to inhibit uridine phosphorylases. […] After 0, 15, and 30 minutes, the reaction was stopped and denatured protein removed as above for dC Kinase. […] Aliquots were then spotted on PE cellulose TLC sheets and the reactants separated with a solvent system composed of isopropanol:HCl:H2O (170:41:39). […] The nucleosides were visualized under U.V. light and the spots cut out and counted. […] Enzyme activity was expressed as nmole formed in 30 min/mg/protein.
# Competition assays to determine Substrate Specificity: Crude extracts of PC-3 cells in culture were prepared as described above. Two concentrations of crude extract were utilized for the studies as determined from the analysis of protein.
# The assays were run for 0, 15, and 30 minutes.
# PC-3 cells [2] = assay: Cytotoxicity (clonogenic) assay, 72 h drug exposure; format: cell-based, human
# Description: as §1
# Cytotoxicity Assays: 5×10^5 cells were plated in 60 mm tissue culture dishes in 5 mls of the optimal growth media for the particular cell line in an humidified 95% air-5% CO2 atmosphere. The plates were incubated for 18-20 hours to allow for attachment and log-phase growth to begin. At the end of this period the growth medium was aspirated and replaced with […]. Four times (4×) concentrated solutions were prepared and then 1 ml was added to the plates; and growth media were then added to a total volume of […]. The plates were then incubated for 72 hours and the cells harvested by trypsinization. The cells were then serially diluted in growth medium replated into 60 mm dishes and incubated for 6 to 9 days depending on the cell line. After this incubation period, the media was aspirated and the colonies were washed twice with a PBS solution. The colonies were then stained with a 0.2% crystal violet-20% ethanol solution for 5 min. the stain was removed, the colonies were washed and air dried. A viable colony was one consisting of 25 or more normal appearing cells and was considered to have arisen from a single cell. The colonies were counted under a dissecting microscope. Two to three dilutions for every condition were plated. Dishes containing 30-300 colonies were used in the calculation and all conditions were done in duplicate.
# [3] = molecular target: deoxycytidine kinase (dCK) (Homo sapiens, UniProt P27707); assay: Competition assay for substrates of deoxycytidine kinase, crude extracts of PC-3 cells
# Sequence of deoxycytidine kinase (dCK) (P27707 whole entry): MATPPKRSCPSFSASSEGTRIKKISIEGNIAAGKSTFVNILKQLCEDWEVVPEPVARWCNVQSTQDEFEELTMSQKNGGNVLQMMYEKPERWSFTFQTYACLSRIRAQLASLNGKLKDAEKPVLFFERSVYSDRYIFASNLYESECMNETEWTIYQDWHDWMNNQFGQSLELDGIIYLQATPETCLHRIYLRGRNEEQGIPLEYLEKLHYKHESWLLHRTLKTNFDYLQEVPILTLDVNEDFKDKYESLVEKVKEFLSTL
# dCMP deaminase = molecular target: T2, dCMP deaminase (Mus musculus, UniProt Q8K2D6); assay: Inhibition of dCMP deaminase after H4U in mice bearing Lewis lung carcinoma; format: in vivo, BD2F1 mice; details: for % of inhibition of dCMP deaminase of tumor: 30 min
# T2 construct: deaminase activity of tumor, serum and other tissues assayed 30 min after H4U; from tissue; host or cells: tumor (Lewis lung carcinoma), serum and other tissues of BD2F1 mice
# T2 sequence (Q8K2D6 1-178): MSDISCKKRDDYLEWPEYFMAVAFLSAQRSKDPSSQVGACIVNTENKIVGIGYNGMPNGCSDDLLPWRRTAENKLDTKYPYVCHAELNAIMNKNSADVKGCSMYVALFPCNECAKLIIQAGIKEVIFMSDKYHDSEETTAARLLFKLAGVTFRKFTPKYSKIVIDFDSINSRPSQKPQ
# Description: dCMP Deaminase Activity: The crude enzyme extract was prepared as described in A. The reaction was carried out in 60 mM Tris HCl, pH 8.0, and 50 μm dCTP, 2.5 mM MgCl2, 30 mM NaF, and 80% H2O to which dCMP (^3H labeled) was added to a final concentration of 2 mM; 20 μl of enzyme extract was added to initiate the reaction giving a total volume of […]. […] A control lacking enzyme was included with each determination. The reaction was terminated as described above in at 0, 30 and 45 minutes and denatured protein was removed by centrifugation as described above. To 10 μl of the supernatant, 6 μl of a 0.03M solution of the carrier nucleotides, dCMP and dUMP were added so that the reactants can be visualized under a UV lamp. Chromatographic isolation of the products was carried out in 2 different solvent systems: A) Baker DEAE Cellulose TLC sheets in 0.01N HCl for 35 min. […] Each appropriate area of the thin layer sheets (where dCMP and dUMP were separated), were cut into small pieces and placed in separate vials and extracted with 1N HCl (1 ml) for 30 minutes. Scintillation cocktail was added (5 ml) to the vials which were vortexed prior to counting. The specific activity was expressed as nmoles/min/mg protein.
# cytidine deaminase = molecular target: T3, cytidine deaminase (Mus musculus, UniProt P56389); assay: Inhibition of tissue cytidine deaminase in mice bearing mammary adenocarcinoma-755 (FIG. 6); format: in vivo, BD2F1 mice; details: H4U 25 mg/kg or deoxytetrahydrouridine 100 mg/kg i.p.; 60 min
# T3 construct: from tissue; host or cells: Lewis lung carcinoma, liver, spleen, intestine, bone marrow, kidney, skeletal muscle and serum of BD2F1 mice
# T3 sequence (P56389 whole entry): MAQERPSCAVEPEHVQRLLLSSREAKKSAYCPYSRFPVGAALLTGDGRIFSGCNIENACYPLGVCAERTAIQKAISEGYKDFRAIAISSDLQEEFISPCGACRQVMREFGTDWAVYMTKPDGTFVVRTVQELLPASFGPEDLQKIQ
# Description: as §4
# Lewis lung carcinoma = assay: Mean day of death (T/C), Lewis lung carcinoma in mice; format: in vivo, BD2F1 mice
# Description: ; The efficacy of the drug, F3methyldC followed the pattern of Selectivity. The mean day of death (Tumor/Control) was 1.3, 1.6, 1.8 and 1.4 for 10, 25, 50 and 75 mg/kg H4U, respectively. […].
# [4] = competition studies, human tumor cell extracts
smiles,measurement,setting,value
O=c1[nH]c(=O)n([C@@H]2O[C@H](CO)[C@@H](O)[C@H]2O)cc1Cl [5-Chlorouridine],substrate for U/C kinase of T24 cells (in words),uridine/cytidine kinase,moderate substrates
same,% Inhibitation (U/C kinase),"uridine/cytidine kinase; competitor 100 μM, substrate 3H-Cytidine 8.3 μM",8%
same,% Inhibitation (U/C kinase),"uridine/cytidine kinase; competitor 100 μM, substrate 3H-Uridine 16.7 μM",11%
same,% Inhibitation (U/C kinase),"uridine/cytidine kinase; competitor 250 μM, substrate 3H-Cytidine 8.3 μM",21%
same,% Inhibitation (U/C kinase),"uridine/cytidine kinase; competitor 250 μM, substrate 3H-Uridine 16.7 μM",22%
same,% Inhibitation (U/C kinase),"uridine/cytidine kinase; competitor 500 μM, substrate 3H-Cytidine 8.3 μM",32%
same,% Inhibitation (U/C kinase),"uridine/cytidine kinase; competitor 500 μM, substrate 3H-Uridine 16.7 μM",24%
same,% Inhibitation (U/C kinase),"uridine/cytidine kinase; competitor 750 μM, substrate 3H-Cytidine 8.3 μM",39%
same,% Inhibitation (U/C kinase),"uridine/cytidine kinase; competitor 750 μM, substrate 3H-Uridine 16.7 μM",32%
same,radiosensitization of PC-3 cells (in words),PC-3 cells [1]; PC-3 cells,effective radiosensitizer
same,radiosensitization of T24 cells (in words),T24 cells,effective radiosensitizer
same,radiosensitization of T24 cells (in words),T24 cells; listed as Chlorouridine,compared very favorably with the other established Radiosensitizers
"Nc1nc(=O)n([C@H]2C[C@H](O)[C@@H](CO)O2)cc1I [5-IdC, 5-Iodo-2′-deoxycytidine]",substrate for cytidine deaminase (in words),cytidine deaminase (CD); [4],good substrates
same,inhibition at 250 µM,"cytidine deaminase (CD); competitor 250 μM, substrate 3H-Deoxycytidine 25 μM, ratio 10, PC-3 extracts",60%
same,effect of tetrahydrouridine (H4U) on cytotoxicity / viability (in words),PC-3 cells [2],antagonized by Tetrahydrouridine
same,effect of thymidine on cytotoxicity (in words),PC-3 cells [2],antagonized by thymidine
same,effect of tetrahydrouridine (H4U) on cytotoxicity / viability (in words),"PC-3 cells [2]; human, 72 h",reversal by H4U
same,% S,"PC-3 cells [2]; nucleoside 5 μM, H4U 0 μM",15%
same,% S,"PC-3 cells [2]; nucleoside 5 μM, H4U 5 μM",100%
same,% S,"PC-3 cells [2]; nucleoside 5 μM, H4U 100 μM",97%
same,% S,"PC-3 cells [2]; nucleoside 5 μM, H4U 1500 μM",100%
same,% S,"PC-3 cells [2]; nucleoside 10 μM, H4U 5 μM",53%
same,% S,"PC-3 cells [2]; nucleoside 10 μM, H4U 100 μM",73%
same,% S,"PC-3 cells [2]; nucleoside 10 μM, H4U 1500 μM",89%
same,% S,"PC-3 cells [2]; nucleoside 20 μM, H4U 5 μM",30%
same,% S,"PC-3 cells [2]; nucleoside 20 μM, H4U 100 μM",65%
same,% S,"PC-3 cells [2]; nucleoside 20 μM, H4U 1500 μM",61%
same,effect of thymidine on radiosensitization (in words),PC-3 cells [1]; cells in culture,antagonized by thymidine
same,effect of tetrahydrouridine (H4U) on radiosensitization (in words),"PC-3 cells [1]; cells in culture, listed as 5-Iododeoxycytidine",reversal by H4U
same,effect of tetrahydrouridine (H4U) on radiosensitization (in words),"PC-3 cells [1]; cells in culture, listed as IdC",greater radiosensitization than IdC alone
same,substrate for deoxycytidine kinase (in words),[3]; [4],very poor substrates
same,inhibition at 250 µM,[3]; read-out: % Inhibition (dCK),0%
O=C1NC(O)CCN1[C@H]1C[C@H](O)[C@@H](CO)O1 (stereo partly drawn) [Deoxytetrahydrouridine],selective inhibition of dCMP deaminase of normal tissue (in words),"dCMP deaminase; mouse, in vivo",not selectively inhibited
same,selectivity of inhibition: tumor CD vs CD of normal tissues (in words),cytidine deaminase,did not display a selective inhibition
O=C1NC(O)CCN1[C@@H]1O[C@H](CO)[C@@H](O)[C@H]1O (stereo partly drawn) [Tetrahydrouridine],% S,"PC-3 cells [2]; no nucleoside, H4U 100 μM alone",100%
same,% of inhibition of dCMP deaminase of tumor,"dCMP deaminase; H4U 10 mg/kg, footnote: less than 5% enzyme inhibition",0^d %
same,% of inhibition of dCMP deaminase of tumor,dCMP deaminase; H4U 25 mg/kg,0%
same,% of inhibition of dCMP deaminase of tumor,dCMP deaminase; H4U 50 mg/kg,0%
same,% of inhibition of dCMP deaminase of tumor,dCMP deaminase; H4U 75 mg/kg,0%
same,MDD T/C (mean day of death),Lewis lung carcinoma; H4U 10 mg/kg with F3methyldC,1.25
same,MDD T/C (mean day of death),"Lewis lung carcinoma; H4U 25 mg/kg with F3methyldC, mean ± SE",1.63 ± 0.07^e
same,MDD T/C (mean day of death),"Lewis lung carcinoma; H4U 50 mg/kg with F3methyldC, mean ± SE",1.78 ± 0.06
same,MDD T/C (mean day of death),Lewis lung carcinoma; H4U 75 mg/kg with F3methyldC,1.44
same,% Inhibitation (U/C kinase),"uridine/cytidine kinase; competitor 1500 μM, substrate 3H-Cytidine 8.3 μM",1.5%
same,% Inhibitation (U/C kinase),"uridine/cytidine kinase; competitor 1500 μM, substrate 3H-Uridine 16.7 μM",1.7%
